Laboratory results taken from ChEMBL document CHEMBL1201862, “PubChem BioAssay data set” (2004).
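Growth conditions: 96-well plates. Treatment: test compound, 48 hours, 5 concentrations. Analysis: linear interpolation between bracketing concentrations; unreached endpoints set to highest concentration. At the GI50, growth is halved.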 Calls of active or inactive are those of the source. Rule as the data show it: active = GI50 up to about 1.1 µM and inactive = higher.

Legend:
Assay in all cases: growth of human tumour cells (NCI), 48 h
786-0 = tested on: 786-0
A498 = tested on: A498
A549 = tested on: A549
BT-549 = tested on: BT-549
CAKI-1 = tested on: CAKI-1
CCRF-CEM = tested on: CCRF-CEM
COLO 205 = tested on: COLO 205
DU-145 = tested on: DU-145
EKVX = tested on: EKVX
HCT-116 = tested on: HCT-116
HCT-15 = tested on: HCT-15
HL-60 = tested on: HL-60
HOP-62 = tested on: HOP-62
HT-29 = tested on: HT-29
Hs-578T = tested on: Hs-578T
IGROV-1 = tested on: IGROV-1
K562 = tested on: K562
KM12 = tested on: KM12
LOX IMVI = tested on: LOX IMVI
M14 = tested on: M14
MCF7 = tested on: MCF7
MDA-MB-435 = tested on: MDA-MB-435
MDA-N = tested on: MDA-N
MOLT-4 = tested on: MOLT-4
Malme-3M = tested on: Malme-3M
NCI-H226 = tested on: NCI-H226
NCI-H460 = tested on: NCI-H460
NCI-H522 = tested on: NCI-H522
NCI/ADR-RES = tested on: NCI/ADR-RES
OVCAR-3 = tested on: OVCAR-3
OVCAR-4 = tested on: OVCAR-4
OVCAR-5 = tested on: OVCAR-5
OVCAR-8 = tested on: OVCAR-8
PC-3 = tested on: PC-3
RPMI-8226 = tested on: RPMI-8226
RXF 393 = tested on: RXF 393
SF-268 = tested on: SF-268
SF-295 = tested on: SF-295
SF-539 = tested on: SF-539
SK-MEL-28 = tested on: SK-MEL-28
SK-MEL-2 = tested on: SK-MEL-2
SK-MEL-5 = tested on: SK-MEL-5
SK-OV-3 = tested on: SK-OV-3
SN12C = tested on: SN12C
SNB-19 = tested on: SNB-19
SNB-75 = tested on: SNB-75
SR = tested on: SR
SW-620 = tested on: SW-620
T47D = tested on: T47D
TK-10 = tested on: TK-10
U-251 = tested on: U-251
UACC-257 = tested on: UACC-257
UACC-62 = tested on: UACC-62
UO-31 = tested on: UO-31
ACHN = tested on: ACHN
HCC 2998 = tested on: HCC 2998
HOP-92 = tested on: HOP-92
MDA-MB-231 = tested on: MDA-MB-231
NCI-H23 = tested on: NCI-H23

Cc1cc(C)nc(NC(=S)Nc2ccccc2Cl)c1
GI50 (786-0): > 100 µM (inactive) | GI50 (A498): > 100 µM (inactive) | GI50 (A549): > 100 µM (inactive) | GI50 (BT-549): > 100 µM (inactive) | GI50 (CAKI-1): > 100 µM (inactive) | GI50 (CCRF-CEM): > 100 µM (inactive) | GI50 (COLO 205): > 100 µM (inactive) | GI50 (DU-145): > 100 µM (inactive) | GI50 (EKVX): > 100 µM (inactive) | GI50 (HCT-116): > 100 µM (inactive) | GI50 (HCT-15): > 100 µM | GI50 (HL-60): > 100 µM (inactive) | GI50 (HOP-62): > 100 µM (inactive) | GI50 (HT-29): > 100 µM (inactive) | GI50 (Hs-578T): > 100 µM (inactive) | GI50 (IGROV-1): > 100 µM (inactive) | GI50 (K562): > 100 µM (inactive) | GI50 (KM12): > 100 µM (inactive) | GI50 (LOX IMVI): > 100 µM (inactive) | GI50 (M14): > 100 µM (inactive) | GI50 (MCF7): > 100 µM (inactive) | GI50 (MDA-MB-435): > 100 µM (inactive) | GI50 (MDA-N): > 100 µM (inactive) | GI50 (MOLT-4): > 100 µM (inactive) | GI50 (Malme-3M): > 100 µM (inactive) | GI50 (NCI-H226): > 100 µM (inactive) | GI50 (NCI-H460): > 100 µM (inactive) | GI50 (NCI-H522): > 100 µM (inactive) | GI50 (NCI/ADR-RES): > 100 µM (inactive) | GI50 (OVCAR-3): > 100 µM (inactive) | GI50 (OVCAR-4): > 100 µM (inactive) | GI50 (OVCAR-5): > 100 µM (inactive) | GI50 (OVCAR-8): > 100 µM (inactive) | GI50 (PC-3): > 100 µM (inactive) | GI50 (RPMI-8226): > 100 µM (inactive) | GI50 (RXF 393): > 100 µM (inactive) | GI50 (SF-268): > 100 µM (inactive) | GI50 (SF-295): > 100 µM (inactive) | GI50 (SF-539): > 100 µM (inactive) | GI50 (SK-MEL-28): > 100 µM (inactive) | GI50 (SK-MEL-2): > 100 µM (inactive) | GI50 (SK-MEL-5): > 100 µM (inactive) | GI50 (SK-OV-3): > 100 µM (inactive) | GI50 (SN12C): > 100 µM (inactive) | GI50 (SNB-19): > 100 µM (inactive) | GI50 (SNB-75): 73.1 µM (inactive) | GI50 (SR): > 100 µM (inactive) | GI50 (SW-620): > 100 µM (inactive) | GI50 (T47D): > 100 µM (inactive) | GI50 (TK-10): > 100 µM (inactive) | GI50 (U-251): > 100 µM (inactive) | GI50 (UACC-257): > 100 µM (inactive) | GI50 (UACC-62): > 100 µM (inactive) | GI50 (UO-31): > 100 µM (inactive)

CCc1nc2cc(F)ccc2[nH]c1=O
GI50 (786-0): > 100 µM (inactive) | GI50 (A498): 22.4 µM (inactive) | GI50 (A549): > 100 µM (inactive) | GI50 (ACHN): > 100 µM (inactive) | GI50 (BT-549): > 100 µM (inactive) | GI50 (CAKI-1): > 100 µM (inactive) | GI50 (CCRF-CEM): > 100 µM (inactive) | GI50 (COLO 205): > 100 µM (inactive) | GI50 (DU-145): 65.5 µM (inactive) | GI50 (EKVX): 2.34 µM (inactive) | GI50 (HCC 2998): > 100 µM (inactive) | GI50 (HCT-116): > 100 µM (inactive) | GI50 (HCT-15): > 100 µM | GI50 (HL-60): > 100 µM (inactive) | GI50 (HOP-62): > 100 µM (inactive) | GI50 (HOP-92): > 100 µM (inactive) | GI50 (HT-29): > 100 µM (inactive) | GI50 (Hs-578T): 10.4 µM (inactive) | GI50 (K562): > 100 µM (inactive) | GI50 (KM12): > 100 µM (inactive) | GI50 (LOX IMVI): > 100 µM (inactive) | GI50 (M14): > 100 µM (inactive) | GI50 (MCF7): > 100 µM (inactive) | GI50 (MDA-MB-231): > 100 µM (inactive) | GI50 (MDA-MB-435): > 100 µM (inactive) | GI50 (MDA-N): > 100 µM (inactive) | GI50 (MOLT-4): > 100 µM (inactive) | GI50 (Malme-3M): > 100 µM (inactive) | GI50 (NCI-H226): > 100 µM (inactive) | GI50 (NCI-H23): > 100 µM (inactive) | GI50 (NCI-H460): > 100 µM (inactive) | GI50 (NCI/ADR-RES): > 100 µM (inactive) | GI50 (OVCAR-3): > 100 µM (inactive) | GI50 (OVCAR-4): > 100 µM (inactive) | GI50 (OVCAR-5): > 100 µM (inactive) | GI50 (OVCAR-8): > 100 µM (inactive) | GI50 (PC-3): > 100 µM (inactive) | GI50 (RPMI-8226): > 100 µM (inactive) | GI50 (RXF 393): 27.9 µM (inactive) | GI50 (SF-268): > 100 µM (inactive) | GI50 (SF-295): > 100 µM (inactive) | GI50 (SF-539): > 100 µM (inactive) | GI50 (SK-MEL-28): > 100 µM (inactive) | GI50 (SK-MEL-2): > 100 µM (inactive) | GI50 (SK-MEL-5): > 100 µM (inactive) | GI50 (SK-OV-3): > 100 µM (inactive) | GI50 (SN12C): > 100 µM (inactive) | GI50 (SNB-19): > 100 µM (inactive) | GI50 (SNB-75): 82.8 µM (inactive) | GI50 (SW-620): > 100 µM (inactive) | GI50 (TK-10): > 100 µM (inactive) | GI50 (U-251): > 100 µM (inactive) | GI50 (UACC-257): > 100 µM (inactive) | GI50 (UACC-62): 38.7 µM (inactive) | GI50 (UO-31): > 100 µM (inactive)
